Data: patent publication US20250108038A1 (priority 2023, published 2025)
Values joined by “and” are separate entries in the source; they are usually repeats but may differ in a detail not shown here. Identical values can stand only once.

System: Long Evans rats
Assay: Behavioral satiety sequence (BSS)
Type: in vivo, Long Evans rat
Text: The Behavioural Satiety Sequence (BSS) is a technique used to evaluate physiological satiety. It is based on the expression of a sequence of behaviors including eating, grooming, locomotor activity, followed by resting, which are typically observed in rodents post-ingestion (Halford et al, 1998, Pharmacology Biochemistry and Behaviour. 61(2): 159-168). The BSS is a widely used model for determining the effects of novel pharmaceuticals on food intake and measures of satiety in rodents (Oliveira et al, 2011, Revista de Nutrição. 24(4) 619-628), and to discriminate the cause of reduced food intake following pharmacological manipulation. For example, treatments that may reduce food intake by non-specific mechanisms, such as immobility, malaise, and taste adulteration, will disrupt this sequence (Halford et al, 1998, Pharmacology Biochemistry and Behaviour. 61(2): 159-168).
Specifically, 12 male Long-Evans rats were food-deprived for 22 h with a 2 h feeding period each day. Rats were trained to consume daily food during the 2 h period over 25 days. The testing phase was initiated once the rats consistently consumed 16-18 g of food per day with ≤10% variance in amount of feed consumed. Feeding took place in designated individual boxes in a quiet room separate from the housing room. Continuous remote monitoring via video camera during feeding was used to assess the BSS. Food consumption was measured by weighing the total available food before and after the 2 h feeding window, correcting for spillage. Lorcaserin (1 mg/kg) was included as a reference control (Higgins et al, 2011, Neuropsychopharmacology. 37(5): 1177-1191). Subjects were tested using a repeated-measures, Latin square design with 2-3 days wash-out between treatment cycles.
On scheduled test days, animals were monitored remotely via video camera during the feeding access period. The occurrence of four mutually exclusive behaviors (eating/drinking, grooming, active, rest) were individually scored. Over the 2 h feeding period, behaviors were assessed every 30 seconds. Scores were compiled into 23 5 min timebins (timebin 24 was removed due to early removal of animals) and the frequency of each behavior within each timebin was calculated to determine a temporal frequency of each measure (Rodgers et al, 2010, Pharmacology Biochemistry and Behaviour. 97: 3-14). Percentage time was plotted for each behavioral sequence in each timebin to compare between treatment groups (Higgins et al, 2011, Neuropsychopharmacology. 37(5): 1177-1191).

[1] = Compound I-19 3 mg/kg i.p., raw score per animal
[2] = Compound I-19 3 mg/kg, AVG of 12 animals
[3] = Compound I-19 3 mg/kg, raw score of individual animals LT-1 to LT-12
[4] = Compound I-19 i.p., first dose group after lorcaserin (dose not given), raw score per animal

Clc1ccc(C2(OCC3OCCO3)c3ccccc3C3=NCCN32)cc1 (stereo not shown) [Compound I-19]
BSS scoring R (resting), Time Bin 4 (15-20 TOTAL) [1]: 1 (2×) and 0 (10×)
BSS scoring R (resting), Time Bin 5 (20-25 TOTAL) [1]: 0 (10×) and 1 (2×)
BSS scoring R (resting), Time Bin 6 (25-30 TOTAL) [1]: 0 (9×) and 1 and 2 (2×)
BSS scoring A (active), Time Bin 13 (60-65 TOTAL), AVG [2]: 0.18
BSS scoring A (active), Time Bin 14 (65-70 TOTAL), AVG [2]: 0.15
BSS scoring A (active), Time Bin 15 (70-75 TOTAL), AVG [2]: 0.28
BSS scoring A (active), Time Bin 16 (75-80 TOTAL), AVG [2]: 0.03
BSS scoring A (active), Time Bin 17 (80-85 TOTAL), AVG [2]: 0.18
BSS scoring A (active), Time Bin 18 (85-90 TOTAL), AVG [2]: 0.12
BSS scoring E (eating/drinking), Time Bin 13 (60-65 TOTAL), AVG [2]: 0.72
BSS scoring E (eating/drinking), Time Bin 14 (65-70 TOTAL), AVG [2]: 0.63
BSS scoring E (eating/drinking), Time Bin 15 (70-75 TOTAL), AVG [2]: 0.53
BSS scoring E (eating/drinking), Time Bin 16 (75-80 TOTAL), AVG [2]: 0.71
BSS scoring E (eating/drinking), Time Bin 17 (80-85 TOTAL), AVG [2]: 0.63
BSS scoring E (eating/drinking), Time Bin 18 (85-90 TOTAL), AVG [2]: 0.65
BSS scoring G (grooming), Time Bin 13 (60-65 TOTAL), AVG [2]: 0.02
BSS scoring G (grooming), Time Bin 14 (65-70 TOTAL), AVG [2]: 0.02
BSS scoring G (grooming), Time Bin 15 (70-75 TOTAL), AVG [2]: 0.06
BSS scoring G (grooming), Time Bin 16 (75-80 TOTAL), AVG [2]: 0.05
BSS scoring G (grooming), Time Bin 17 (80-85 TOTAL), AVG [2]: 0.03
BSS scoring G (grooming), Time Bin 18 (85-90 TOTAL), AVG [2]: 0.07
BSS scoring R (resting), Time Bin 13 (60-65 TOTAL), AVG [2]: 0.09
BSS scoring R (resting), Time Bin 14 (65-70 TOTAL), AVG [2]: 0.21
BSS scoring R (resting), Time Bin 15 (70-75 TOTAL), AVG [2]: 0.13
BSS scoring R (resting), Time Bin 16 (75-80 TOTAL), AVG [2]: 0.22
BSS scoring R (resting), Time Bin 17 (80-85 TOTAL), AVG [2]: 0.17
BSS scoring R (resting), Time Bin 18 (85-90 TOTAL), AVG [2]: 0.17
BSS scoring A (active), Time Bin 13 (60-65 TOTAL) [3]: 3 and 0 (3×) and 2 (4×) and 1 (2×) and 4 (2×)
BSS scoring A (active), Time Bin 14 (65-70 TOTAL) [3]: 8 and 0 (5×) and 1 (5×) and 5
BSS scoring A (active), Time Bin 15 (70-75 TOTAL) [3]: 3 (2×) and 0 (5×) and 5 (3×) and 4 and 9
BSS scoring A (active), Time Bin 16 (75-80 TOTAL) [3]: 0 (10×) and 1 and 2
BSS scoring A (active), Time Bin 17 (80-85 TOTAL) [3]: 0 (6×) and 8 and 2 and 3 and 4 (2×) and 1
BSS scoring A (active), Time Bin 18 (85-90 TOTAL) [3]: 0 (7×) and 2 and 3 (2×) and 1 and 5
BSS scoring E (eating/drinking), Time Bin 13 (60-65 TOTAL) [3]: 6 (3×) and 8 (4×) and 7 and 9 and 10 (2×) and 0
BSS scoring E (eating/drinking), Time Bin 14 (65-70 TOTAL) [3]: 2 (2×) and 8 (2×) and 9 (3×) and 10 and 3 (2×) and 7 and 5
BSS scoring E (eating/drinking), Time Bin 15 (70-75 TOTAL) [3]: 7 (3×) and 9 and 8 and 5 (2×) and 0 (3×) and 6 and 10
BSS scoring E (eating/drinking), Time Bin 16 (75-80 TOTAL) [3]: 10 (4×) and 8 (3×) and 3 and 0 and 2 and 9 and 7
BSS scoring E (eating/drinking), Time Bin 17 (80-85 TOTAL) [3]: 7 and 2 and 8 and 10 (4×) and 0 (2×) and 3 and 6 and 9
BSS scoring E (eating/drinking), Time Bin 18 (85-90 TOTAL) [3]: 10 (4×) and 8 (2×) and 5 (2×) and 0 (2×) and 9 and 3
BSS scoring G (grooming), Time Bin 13 (60-65 TOTAL) [3]: 1 (2×) and 0 (10×)
BSS scoring G (grooming), Time Bin 14 (65-70 TOTAL) [3]: 0 (11×) and 2
BSS scoring G (grooming), Time Bin 15 (70-75 TOTAL) [3]: 0 (8×) and 1 (3×) and 4
BSS scoring G (grooming), Time Bin 16 (75-80 TOTAL) [3]: 0 (8×) and 1 (3×) and 3
BSS scoring G (grooming), Time Bin 17 (80-85 TOTAL) [3]: 0 (10×) and 1 and 2
BSS scoring G (grooming), Time Bin 18 (85-90 TOTAL) [3]: 0 (8×) and 4 and 1 (2×) and 2
BSS scoring R (resting), Time Bin 13 (60-65 TOTAL) [3]: 0 (8×) and 2 (2×) and 1 and 6
BSS scoring R (resting), Time Bin 14 (65-70 TOTAL) [3]: 0 (4×) and 2 (3×) and 1 (2×) and 6 and 7 and 4
BSS scoring R (resting), Time Bin 15 (70-75 TOTAL) [3]: 0 (8×) and 2 and 5 (2×) and 3
BSS scoring R (resting), Time Bin 16 (75-80 TOTAL) [3]: 0 (4×) and 1 (4×) and 3 and 9 and 2 and 8
BSS scoring R (resting), Time Bin 17 (80-85 TOTAL) [3]: 3 (2×) and 0 (7×) and 1 and 8 and 5
BSS scoring R (resting), Time Bin 18 (85-90 TOTAL) [3]: 0 (7×) and 2 (2×) and 6 and 9 and 1
effect on the behavioral satiety sequence (BSS) (Compound I-19 0.1-3 mg/kg IP, lorcaserin 1 mg/kg SC): did not affect the BSS compared to vehicle pretreatment
BSS scoring A (active), Time Bin 7 (30-35 TOTAL) [4]: 2 and 0
BSS scoring A (active), Time Bin 8 (35-40 TOTAL) [4]: 2 and 0
BSS scoring A (active), Time Bin 9 (40-45 TOTAL) [4]: 1 and 2
BSS scoring A (active), Time Bin 10 (45-50 TOTAL) [4]: 1
BSS scoring A (active), Time Bin 11 (50-55 TOTAL) [4]: 1 and 0
BSS scoring A (active), Time Bin 12 (55-60 TOTAL) [4]: 1 and 2
BSS scoring E (eating/drinking), Time Bin 7 (30-35 TOTAL) [4]: 6 and 9
BSS scoring E (eating/drinking), Time Bin 8 (35-40 TOTAL) [4]: 6 and 9
BSS scoring E (eating/drinking), Time Bin 9 (40-45 TOTAL) [4]: 9 and 6
BSS scoring E (eating/drinking), Time Bin 10 (45-50 TOTAL) [4]: 7
BSS scoring E (eating/drinking), Time Bin 11 (50-55 TOTAL) [4]: 8 and 10
BSS scoring E (eating/drinking), Time Bin 12 (55-60 TOTAL) [4]: 5 and 8
BSS scoring G (grooming), Time Bin 7 (30-35 TOTAL) [4]: 0 and 1
BSS scoring G (grooming), Time Bin 8 (35-40 TOTAL) [4]: 1
BSS scoring G (grooming), Time Bin 9 (40-45 TOTAL) [4]: 0 and 1
BSS scoring G (grooming), Time Bin 10 (45-50 TOTAL) [4]: 1
BSS scoring G (grooming), Time Bin 11 (50-55 TOTAL) [4]: 0
BSS scoring G (grooming), Time Bin 12 (55-60 TOTAL) [4]: 1 and 0
BSS scoring R (resting), Time Bin 7 (30-35 TOTAL) [4]: 2 and 0
BSS scoring R (resting), Time Bin 8 (35-40 TOTAL) [4]: 1 and 0
BSS scoring R (resting), Time Bin 9 (40-45 TOTAL) [4]: 0 and 1
BSS scoring R (resting), Time Bin 10 (45-50 TOTAL) [4]: 1
BSS scoring R (resting), Time Bin 11 (50-55 TOTAL) [4]: 1 and 0
BSS scoring R (resting), Time Bin 12 (55-60 TOTAL) [4]: 3 and 0
